Results on 15 compounds are retold here after patent US8557830B2, “RAF kinase modulators and methods of use” (Amgen Inc., priority 2007, dated 2013).

Each structure is given as a SMILES string. Read-outs that look alike come from different tables or passages of the source.

One experiment addresses recombinant HuBraf V600E (Homo sapiens, UniProt P15056, V600E). Put plainly: B-raf Homogenous Time Resolved Fluorescent (HTRF) kinase assay. It is filed as biochemical. To be noted: human mutant B-raf V600E, substrate MEK1, 10 uM ATP, read-out: HTRF Enzyme assay Data IC50. The protocol: B-raf-Homogenous Time Resolved Fluorescent (HTRF) Kinase Assay
The final concentration of the kinase reaction buffer is 50 mM Tris-HCL pH 7.5, 10 mM MgCl2, 0.5% glucose, 0.5 mM DTT, 0.01% BSA. […] The detection reaction proceeds for one hour and is read on a RubyStar (BMG Labtech) counter. IC50s for the test compounds are generated using Excel-XLfit software.

The target in the next experiment is T1, V600E mutant B-raf (Homo sapiens, UniProt P15056, V600E).
T1 construct: A375 cells, a human melanoma cell line having the V600E mutant B-raf is used in this assay; endogenous in cells; host or cells: A375 human melanoma cells
As to the kind of experiment: B-raf cell-based assay (ratio of phospho-ERK1/2 to total ERK1/2 in A375 cells). To be noted: A375 human melanoma cells, P-ERK/total ERK. As to the method:
A cell-based assay was optimized to assay the ability of compounds to inhibit B-raf activity in a whole cell context. […] The cell-based assay quantifies the ratio of phospho-ERK1/2 to total ERK1/2 and can thereby assay the cellular inhibition of B-raf kinase activity. A375 cells are plated into 96 well plates and grown to confluence. The cells are then changed into starve media (DMEM/0.1% BSA) for 60 minutes. Compounds in DMSO dose curves are then diluted in starve media and added to cells. […] After a 60 minute incubation the cells are fixed for 20 minutes at RT in 4% formaldehyde with 0.1% Triton X-100, protease and phosphatase inhibitors in PBS. The cells are washed four times in PBS then blocked for 60 minutes using a one to one mix of Odyssey blocking buffer (Li-Cor Biosciences, Inc) and PBS. Primary antibodies (rabbit anti-phospho p42/p44 MAPK (P-ERK1/2) from Cell Signaling Technology and mouse anti-ERK2 from Santa Cruz Biotechnology) are diluted in blocking buffer, added to the cells and incubated overnight at 4° C. The cells are then washed four times in PBS/0.1% Tween-20. Secondary antibodies (anti-mouse IRDye 800CW from Rockland, Inc and anti-rabbit AlexaFlour680 from Molecular Probes) are diluted in blocking buffer/0.5% Tween and incubated on cells for 60 minutes. After 4 washes in PBS/0.1% Tween-20 the microplate is scanned on an Odyssey Infrared Imager (Li-Cor Bioscience) which can read the signal given by the two secondary antibodies on their respective channels. The ratio of P-ERK/total ERK is determined and IC50s generated using Excel-XLfit software.

T1 sequence (P15056 whole entry V600E): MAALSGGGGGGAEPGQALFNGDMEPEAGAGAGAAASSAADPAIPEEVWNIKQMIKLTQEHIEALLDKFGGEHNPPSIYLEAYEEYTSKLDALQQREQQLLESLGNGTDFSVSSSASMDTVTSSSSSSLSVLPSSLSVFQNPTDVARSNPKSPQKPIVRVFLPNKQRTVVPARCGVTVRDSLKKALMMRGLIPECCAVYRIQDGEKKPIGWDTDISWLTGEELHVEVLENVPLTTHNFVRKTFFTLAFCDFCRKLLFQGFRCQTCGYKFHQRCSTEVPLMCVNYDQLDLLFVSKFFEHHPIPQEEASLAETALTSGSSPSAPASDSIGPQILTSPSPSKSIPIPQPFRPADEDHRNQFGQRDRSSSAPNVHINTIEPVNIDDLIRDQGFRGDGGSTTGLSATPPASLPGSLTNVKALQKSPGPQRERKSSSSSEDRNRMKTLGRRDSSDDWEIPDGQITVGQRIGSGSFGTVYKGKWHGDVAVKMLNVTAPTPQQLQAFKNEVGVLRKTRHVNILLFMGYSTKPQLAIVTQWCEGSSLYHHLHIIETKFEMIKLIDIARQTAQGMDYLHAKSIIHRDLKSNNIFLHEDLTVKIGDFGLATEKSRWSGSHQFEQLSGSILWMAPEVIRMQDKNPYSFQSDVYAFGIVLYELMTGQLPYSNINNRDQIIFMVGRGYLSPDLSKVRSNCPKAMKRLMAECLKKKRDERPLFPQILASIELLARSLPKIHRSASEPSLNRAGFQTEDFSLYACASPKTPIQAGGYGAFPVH
Chain of recombinant HuBraf V600E (P15056 whole entry V600E): as above

In the case of `Cc1ccc2c(Nc3cccc(C(F)(F)F)c3)nccc2c1Nc1ncccc1-c1ncnc2[nH]cnc12` [Example 58, 6-methyl-N-5-(3-(9H-purin-6-yl)-2-pyridinyl)-N-1-(3-(trifluoromethyl)phenyl)-1,5-isoquinolinediamine], the 50% inhibitory concentration (IC50) on recombinant HuBraf V600E (Table I) and on V600E mutant B-raf (Table I) was 6 nM in each case.
Take `Cc1ccc2c(Nc3ccc4c(c3)OC(F)(F)O4)nccc2c1Nc1ncccc1-c1ncnc2[nH]cnc12` [Example 59, N-1-(2,2-difluoro-1,3-benzodioxol-5-yl)-6-methyl-N-5-(3-(9H-purin-6-yl)-2-pyridinyl)-1,5-isoquinolinediamine]: the IC50 on recombinant HuBraf V600E (Table I) and at V600E mutant B-raf (Table I) was 6 nM throughout.
For `Cc1ccc(C(F)(F)F)cc1Nc1nccc2c(Nc3nc(Cl)ncc3-c3ncnc4[nH]ccc34)c(C)ccc12` [Example 55, N-5-(2-chloro-5-(7H-pyrrolo[2,3-d]pyrimidin-4-yl)-4-pyrimidinyl)-6-methyl-N-1-(2-methyl-5-(trifluoromethyl)phenyl)-1,5-isoquinolinediamine], the IC50 was 15 nM at recombinant HuBraf V600E (Table I) and 86 nM at V600E mutant B-raf (Table I).
The corresponding values for `Cc1ccc2c(Nc3ccc(C#N)cc3)ncnc2c1Nc1ncccc1-c1ncnc2[nH]cnc12` [Example 61, 4-((7-methyl-8-((3-(9H-purin-6-yl)-2-pyridinyl)amino)-4-quinazolinyl)amino)benzonitrile] are 2 nM and 103 nM.
`Cc1ccc2c(Nc3ccc4c(c3)OC(F)(F)O4)nccc2c1Nc1ncccc1-c1ncnc2[nH]ncc12` [Example 72, N-1-(2,2-difluoro-1,3-benzodioxol-5-yl)-6-methyl-N-5-(3-(1H-pyrazolo[3,4-d]pyrimidin-4-yl)-2-pyridinyl)-1,5-isoquinolinediamine]: the IC50 was 20 nM at recombinant HuBraf V600E (Table II) and 18 nM on V600E mutant B-raf (Table II).
With `Cc1ccc2c(Nc3ccc4c(c3)C(F)(F)C(=O)N4)nccc2c1Nc1ncccc1-c1ncnc2[nH]ccc12` [Example 46, 3,3-difluoro-5-((6-methyl-5-((3-(7H-pyrrolo[2,3-d]pyrimidin-4-yl)-2-pyridinyl)amino)-1-isoquinolinyl)amino)-1,3-dihydro-2H-indol-2-one], the IC50 at recombinant HuBraf V600E (Table I) came to 15 nM; at V600E mutant B-raf (Table I) it was 25 nM.
Consider `Cc1ccc2c(Nc3ccc4c(c3)OC(F)(F)O4)ncnc2c1Nc1ncccc1-c1ncnc2[nH]cnc12` [Example 74, N-4-(2,2-difluoro-1,3-benzodioxol-5-yl)-7-methyl-N-8-(3-(9H-purin-6-yl)-2-pyridinyl)-4,8-quinazolinediamine], for which the IC50 turned out to be 8 nM at recombinant HuBraf V600E (Table II) and 4 nM at V600E mutant B-raf (Table II).
Take `Cc1ccc2c(Nc3cccc(C(F)(F)F)c3)ncnc2c1Nc1ncccc1-c1ncnc2[nH]cnc12` [Example 73, 7-methyl-N-8-(3-(9H-purin-6-yl)-2-pyridinyl)-N-4-(3-(trifluoromethyl)phenyl)-4,8-quinazolinediamine]: the figures for the concentration for half-maximal inhibition (IC50) at recombinant HuBraf V600E (Table II) and at V600E mutant B-raf (Table II) were 26 nM and 33 nM, respectively.
In the case of `Cc1ccc2c(Nc3ccc(C#N)cc3)nccc2c1Nc1ncccc1-c1ncnc2[nH]cnc12` [Example 57, 4-((6-methyl-5-((3-(9H-purin-6-yl)-2-pyridinyl)amino)-1-isoquinolinyl)amino)benzonitrile], the IC50 came out at 0.6 nM on recombinant HuBraf V600E (Table I) and 4 nM at V600E mutant B-raf (Table I).
On the same counts, the results for `Cc1ccc2c(Nc3ccc(Cl)cc3)nccc2c1Nc1ncccc1-c1ncnc2[nH]ccc12` [Example 42, N-1-(4-chlorophenyl)-6-methyl-N-5-(3-(7H-pyrrolo[2,3-d]pyrimidin-4-yl)-2-pyridinyl)-1,5-isoquinolinediamine] are 3 nM and 5 nM.
The corresponding values for `Cc1ccc2c(Nc3ccc4c(c3)OC(F)(F)O4)nccc2c1Nc1ncccc1-c1ncnc2cc[nH]c12` [Example 64, N-1-(2,2-difluoro-1,3-benzodioxol-5-yl)-6-methyl-N-5-(3-(5H-pyrrolo[3,2-d]pyrimidin-4-yl)-2-pyridinyl)-1,5-isoquinolinediamine] are 302 nM and 111 nM.
The corresponding values for `Cc1ccc2c(Nc3ccc(C#N)cc3)nccc2c1Nc1ncccc1-c1ncnc2cc[nH]c12` [Example 63, 4-((6-methyl-5-((3-(5H-pyrrolo[3,2-d]pyrimidin-4-yl)-2-pyridinyl)amino)-1-isoquinolinyl)amino)benzonitrile] are 171 nM and 1000 nM.
Take `Cc1ccc(OC(F)(F)F)cc1Nc1nccc2c(Nc3ncccc3-c3ncnc4[nH]ccc34)c(C)ccc12` [Example 41, 6-methyl-N-1-(2-methyl-5-((trifluoromethyl)oxy)phenyl)-N-5-(3-(7H-pyrrolo[2,3-d]pyrimidin-4-yl)-2-pyridinyl)-1,5-isoquinolinediamine]: the IC50 on recombinant HuBraf V600E (Table I) stood at 35 nM; at V600E mutant B-raf (Table I), 107 nM.
On the same counts, the results for `Cc1ccc2c(Nc3ccc4c(C)cc(=O)[nH]c4c3)nccc2c1Nc1ncccc1-c1ncnc2[nH]ccc12` [Example 52, 4-methyl-7-((6-methyl-5-((3-(7H-pyrrolo[2,3-d]pyrimidin-4-yl)-2-pyridinyl)amino)-1-isoquinolinyl)amino)-2(1H)-quinolinone] are 7 nM and 7 nM.
With `Cc1ccc2c(Nc3ccc(Cl)cc3)ncnc2c1Nc1ncccc1-c1ncnc2[nH]cnc12` [Example 77, N-4-(4-chlorophenyl)-7-methyl-N-8-(3-(9H-purin-6-yl)-2-pyridinyl)-4,8-quinazolinediamine], the IC50 on recombinant HuBraf V600E (Table II) was found to be 5 nM; on V600E mutant B-raf (Table II), 12 nM.
